Assay [1] concerns flower buds of the transgenic lines (Tobacco, Nicotiana tabacum) expressing ArgJ deacetylase under TA29 promoter. In words: Flower bud treatment to induce male-sterile flowers in TA29-ArgJ transgenic tobacco. The format is in vivo. The following applies: 10 μl of 5 mg/ml solution (0.1% Genapol). The text has this: The ArgJ coding sequence was recloned into the binary vector pROK1 under control of the TA29 promoter of tobacco. The resulting plasmid pTA29ARG comprising the TA29 promoter, ArgJ coding sequence and 35S terminator was transformed in Agrobacterium tumefaciens (strain ATHV) using standard methods. Tobacco (Nicotiana tabacurn) leaf disks were transformed with the recombinant Agrobacteria according to the method of Horsch et al. (1985, above) and selected on kanamycin medium.
To investigate tapetum-specific expression of the ArgJ deacetylase, flower buds of the transgenic lines were treated with N-acetyl-PPT to induce male-sterile flowers.
In each case only one side of the inflorescence ([…] of the developing flower bud) was treated with N-acetyl PPT, in order to eliminate possible contamination with natural male-sterility phenomena. Treatment was carried out on flower buds of 2 to 4 mm large. Transgenic and control plants were treated with 10 μl of 5 mg/ml N-acetyl PPT solution (0.1% Genapol as wetting agent). After the blooming of the buds (about 9-11 days after conclusion of the treatment) the plants were investigated for the occurrence of male-sterile flowers.

The subject of assay [2] is leaves of the transgenic plants (Tobacco, Nicotiana tabacum) expressing ArgJ coding sequence under 35S promoter. In words: Drop experiment on leaves of 35S-ArgJ transgenic tobacco plants. The following applies: 5 μl drops; dose of 4 mg/ml or 1 mg/ml; apparent 4 to 5 days after treatment; seven independent p35SARG transformants. The format is in vivo. The text has this: The ArgJ coding sequence was recloned into the binary vector pROK1 under control of the Cauliflower Mosaic Virus 35S promoter sequence. The resulting plasmid p35SARG comprising the 35S promoter, ArgJ coding sequence and 35S terminator was transformed in Agrobacterium tumefaciens (strain ATHV) using standard methods. Tobacco (Nicotiana tabacum) leaf disks were transformed with the recombinant Agrobacteria according to the method of Horsch et al. (1985, Science 227:1229-1231) and selected on kanamycin medium. Seven independent transformants were regenerated. In a drop experiment, the leaves of the transgenic plants (and a number of control plants) were treated with 5 μl each of the following concentrations of N-acetyl- D, L-PPT: 4 mg/ml (=15 mM), 1 mg/ml (=3.75 mM), 0.4 mg/ml (=1.5 mM), 0.1 mg/ml (=0.38 mM). The treatment sites were examined for lightening or necrosis formation.

The values that follow come from patent US20050081267A1, “Novel genes for conditional cell ablation” (Bayer Bioscience N.V., priority 2001, published 2005).

On to `CC(=O)NC(CCP(C)(=O)O)C(=O)O` [N-acetyl- D, L-PPT, N-acetyl-phosphinothricin], for which, in assay [1] (control and wild-type plants), the “occurrence of male-sterile flowers, control or wild-type tobacco flowers” value was “no reaction was seen”. Also, in assay [1] (flower buds 2 to 4 mm, examined about 9-11 days after treatment, pTA29ARG transgenic plants), the “occurrence of male-sterile flowers from drop-treated flowerbuds, transgenic plants” value was “In three out of seven transgenic plants, male-sterile flowers developed”. The “lightening or necrosis formation at treatment sites (leaf damage)” value in assay [2] is reported as “Four plants showed clearly visible leaf damage”.
